Source: ChEMBL document CHEMBL1158049, “Bisindole alkaloids from myxomycetes Arcyria denudata and Arcyria obvelata” (J Nat Prod, 2006)
Converted amounts (≈) assume the structure as drawn.

test system: Jurkat; assay: Cytotoxicity against human Jurkat cells after 42 hrs by alamar blue assay; format: functional, cell-based

| Structure (SMILES) | IC50 |
| --- | --- |
| O=C1NC(=O)C(c2c[nH]c3cc(O)ccc23)=C1c1c[nH]c2ccccc12 [ARCYRIARUBIN B] | 10 mg/L (≈ 29.1 µM) |
| O=C1NC(=O)[C@H]2c3c[nH]c4cccc(c34)-c3[nH]c4ccccc4c3[C@@H]12 [DIHYDROARCYRIACYANIN A] | 7 mg/L (≈ 21.4 µM) |
| O=C1NC(=O)C2=C1c1c([nH]c3cc(O)ccc13)Oc1cccc3[nH]cc2c13 [ARCYROXOCIN B] | 7 mg/L (≈ 19.6 µM) |
| O=C1NC(=O)C(c2c[nH]c3cc(OS(=O)(=O)O)ccc23)=C1c1c[nH]c2ccccc12 | > 25 mg/L |
